Reference: article PMC7421780 (Future Medicinal Chemistry, 2020)
Read-outs that look alike come from different tables or passages of the source.

Experiments:
[1] = target: T1, CYP2C8 (Homo sapiens, UniProt P10632); assay: biochemical
T1 sequence (P10632 1-490): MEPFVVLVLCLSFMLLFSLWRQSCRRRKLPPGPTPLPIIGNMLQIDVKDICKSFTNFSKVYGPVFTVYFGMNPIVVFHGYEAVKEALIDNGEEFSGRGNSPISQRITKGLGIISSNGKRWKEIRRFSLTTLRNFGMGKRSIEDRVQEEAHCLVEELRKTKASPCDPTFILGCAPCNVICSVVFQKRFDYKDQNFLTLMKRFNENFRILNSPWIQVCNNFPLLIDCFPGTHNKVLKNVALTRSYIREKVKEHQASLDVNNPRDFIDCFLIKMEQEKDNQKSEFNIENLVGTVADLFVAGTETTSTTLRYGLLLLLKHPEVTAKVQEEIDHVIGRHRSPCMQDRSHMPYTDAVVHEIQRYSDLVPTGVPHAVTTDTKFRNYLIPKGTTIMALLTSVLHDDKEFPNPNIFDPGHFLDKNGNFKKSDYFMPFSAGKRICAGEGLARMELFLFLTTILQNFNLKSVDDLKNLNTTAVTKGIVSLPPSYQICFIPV

[2] = tested on: NRP Mtb H37Rv; assay: microbe, parasite or virus in culture; type: cell-based; settings: Mycobacterium tuberculosis
[3] = Caco-2 cell monolayer permeability assay; settings: human, Caco-2
[4] = tested on: Mtb H37Rv; assay: Primary screen: MIC, IC50 and IC90 under aerobic conditions; type: cell-based; settings: Mycobacterium tuberculosis
[5] = tested on: Mtb H37Rv; assay: Minimal bactericidal concentration; type: cell-based, Mycobacterium tuberculosis; settings: Mtb H37Rv aerobic
[6] = Human plasma, equilibrium dialysis
[7] = tested on: Mycobacterium avium; assay: MIC against nontuberculous mycobacteria, Alamar blue; type: cell-based
[8] = tested on: intracellular Mtb H37Rv; assay: microbe, parasite or virus in culture; type: cell-based; settings: Mycobacterium tuberculosis; for IC50: THP-1, read-out: IC50 intracell; for IC90: THP-1, read-out: IC90 intracell
[9] = tested on: Mtb H37Rv; assay: Secondary assay: MIC, IC50 and IC90 repeated at lower starting concentrations; type: cell-based; settings: Mycobacterium tuberculosis; for MIC: read-out: MIC aerobic condition
[10] = target: CYP2C9 (Homo sapiens, UniProt P11712); assay: Cytochrome P450 inhibition; type: in vitro ADME
[11] = in vitro; settings: human
[12] = HepG2 cytotoxicity; type: cell-based; settings: human, HepG2 cells
[13] = target: CYP2C19 (Homo sapiens, UniProt P33261); assay: biochemical
[14] = In vitro microsomal stability assay; settings: human, microsomes
[15] = target: CYP3A4 (Homo sapiens, UniProt P08684); assay: Cytochrome P450 inhibition; type: in vitro ADME
[16] = target: T2, CYP2B6 (Homo sapiens, UniProt P20813); assay: biochemical
T2 sequence (P20813 1-491): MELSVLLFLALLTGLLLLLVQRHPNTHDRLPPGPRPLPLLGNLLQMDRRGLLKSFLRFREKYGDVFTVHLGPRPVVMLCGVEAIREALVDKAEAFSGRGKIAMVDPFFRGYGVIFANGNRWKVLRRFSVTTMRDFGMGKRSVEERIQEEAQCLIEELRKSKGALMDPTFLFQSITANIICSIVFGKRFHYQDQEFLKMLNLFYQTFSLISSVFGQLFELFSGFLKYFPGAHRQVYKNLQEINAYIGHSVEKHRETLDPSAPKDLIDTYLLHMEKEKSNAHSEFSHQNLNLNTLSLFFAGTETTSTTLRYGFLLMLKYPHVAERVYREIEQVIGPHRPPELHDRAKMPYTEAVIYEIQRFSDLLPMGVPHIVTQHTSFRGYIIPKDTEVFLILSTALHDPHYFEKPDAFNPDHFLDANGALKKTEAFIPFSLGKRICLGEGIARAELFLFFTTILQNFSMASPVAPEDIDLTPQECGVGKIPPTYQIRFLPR

[17] = in vitro; settings: human; remark: listed apart in the source
[18] = tested on: Mycobacterium abscessus; assay: MIC, IC50, IC90 against nontuberculous mycobacteria; type: cell-based
[19] = target: CYP2D6 (Homo sapiens, UniProt P10635); assay: biochemical
[20] = physchem; settings: aqueous with cosolvent or surfactant or cyclodextrin, kinetic from dmso stock

CYP3A4, sequence (P08684 whole entry): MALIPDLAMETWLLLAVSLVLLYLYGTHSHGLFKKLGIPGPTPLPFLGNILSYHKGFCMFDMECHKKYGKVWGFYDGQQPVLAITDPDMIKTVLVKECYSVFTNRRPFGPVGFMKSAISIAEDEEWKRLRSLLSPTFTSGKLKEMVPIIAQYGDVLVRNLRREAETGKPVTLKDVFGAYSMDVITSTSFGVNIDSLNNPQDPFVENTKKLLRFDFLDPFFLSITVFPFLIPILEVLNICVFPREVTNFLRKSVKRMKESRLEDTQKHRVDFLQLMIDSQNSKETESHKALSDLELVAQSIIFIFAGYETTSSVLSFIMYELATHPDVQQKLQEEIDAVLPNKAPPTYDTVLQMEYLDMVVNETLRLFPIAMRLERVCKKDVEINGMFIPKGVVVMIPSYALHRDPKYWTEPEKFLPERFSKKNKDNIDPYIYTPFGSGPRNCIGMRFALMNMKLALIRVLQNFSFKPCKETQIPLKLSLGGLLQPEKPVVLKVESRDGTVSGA
CYP2C9, sequence (P11712 whole entry): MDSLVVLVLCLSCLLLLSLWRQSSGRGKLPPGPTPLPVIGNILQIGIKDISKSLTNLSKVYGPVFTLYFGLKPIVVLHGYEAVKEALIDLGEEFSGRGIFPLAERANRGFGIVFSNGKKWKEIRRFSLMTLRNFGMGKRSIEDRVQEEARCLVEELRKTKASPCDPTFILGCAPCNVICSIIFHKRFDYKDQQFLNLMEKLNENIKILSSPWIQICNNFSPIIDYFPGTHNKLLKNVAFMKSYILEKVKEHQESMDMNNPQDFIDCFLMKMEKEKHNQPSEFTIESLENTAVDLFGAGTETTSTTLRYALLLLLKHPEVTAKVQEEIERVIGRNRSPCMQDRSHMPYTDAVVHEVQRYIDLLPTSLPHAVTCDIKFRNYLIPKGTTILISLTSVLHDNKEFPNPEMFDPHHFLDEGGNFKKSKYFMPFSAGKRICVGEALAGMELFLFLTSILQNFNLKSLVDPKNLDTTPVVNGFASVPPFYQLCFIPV
CYP2C19, sequence (P33261 whole entry): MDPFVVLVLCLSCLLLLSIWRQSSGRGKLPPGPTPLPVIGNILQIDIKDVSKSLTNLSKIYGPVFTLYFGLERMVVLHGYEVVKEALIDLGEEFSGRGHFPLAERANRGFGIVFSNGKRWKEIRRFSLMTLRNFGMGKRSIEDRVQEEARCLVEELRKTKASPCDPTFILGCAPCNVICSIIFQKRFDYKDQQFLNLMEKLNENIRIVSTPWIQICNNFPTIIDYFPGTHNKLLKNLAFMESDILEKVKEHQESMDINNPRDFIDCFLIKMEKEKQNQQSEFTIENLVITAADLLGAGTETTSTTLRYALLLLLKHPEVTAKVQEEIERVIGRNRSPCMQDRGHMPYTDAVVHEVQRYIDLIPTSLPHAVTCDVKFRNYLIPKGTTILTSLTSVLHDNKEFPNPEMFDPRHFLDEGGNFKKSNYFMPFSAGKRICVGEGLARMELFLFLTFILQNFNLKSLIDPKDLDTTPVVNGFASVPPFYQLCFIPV
CYP2D6, sequence (P10635 whole entry): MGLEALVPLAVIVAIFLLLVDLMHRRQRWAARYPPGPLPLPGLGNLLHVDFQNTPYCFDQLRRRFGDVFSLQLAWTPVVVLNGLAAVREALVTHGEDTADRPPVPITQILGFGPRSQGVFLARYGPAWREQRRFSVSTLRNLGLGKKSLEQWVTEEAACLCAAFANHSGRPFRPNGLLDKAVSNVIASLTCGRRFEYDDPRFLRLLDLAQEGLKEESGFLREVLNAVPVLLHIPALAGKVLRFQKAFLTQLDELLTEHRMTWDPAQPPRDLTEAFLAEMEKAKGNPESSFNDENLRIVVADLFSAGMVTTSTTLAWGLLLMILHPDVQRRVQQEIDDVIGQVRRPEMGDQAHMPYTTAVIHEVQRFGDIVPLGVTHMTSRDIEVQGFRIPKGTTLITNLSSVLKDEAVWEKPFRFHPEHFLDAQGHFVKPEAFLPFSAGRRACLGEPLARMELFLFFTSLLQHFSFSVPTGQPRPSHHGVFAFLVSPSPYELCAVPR

For `O=C(C[n+]1cn(Cc2cccc(Cn3c[n+](CC(=O)c4ccc([N+](=O)[O-])cc4)c4ccccc43)n2)c2ccccc21)c1ccc([N+](=O)[O-])cc1.[Br-].[Br-]` [Compound 6f, 1,1′-(pyridine-2,6-diylbis(methylene))bis(3-(2-(4-nitrophenyl)-2-oxoethyl)-1H-benzo[d]imidazol-3-ium) bromide], the IC50 [1] was > 20 µM, the IC50 ([2]; Low oxygen) was 9.7 µM and the IC90 ([2]; Low oxygen) was 33 µM. It also gave an MIC ([2]; Low oxygen) of 120 µM, an IC50 ([2]; Normal oxygen) of 9.9 µM and an IC90 ([2]; Normal oxygen) of 25 µM. For the same compound, the MIC ([2]; Normal oxygen) was 71 µM, the Papp B→A [3] was 0.095 ×10⁻⁶ cm/s and the efflux ratio [3] was 0.2. The IC50 [4] was 14 µM, the IC90 [4] was 21 µM and the MIC [4] was 24 µM. For the same compound, the “mechanism of action (bacteriostatic or bactericidal)” value [5] was “bactericidal”, the “Mean plasma fraction unbound” value [6] was 7.8% and the “activity against M. avium (in words)” value [7] was “moderate activity”. The MIC ([7]; Mycobacterium avium) was 200 µM, the IC50 [8] was 14 µM and the IC90 [8] was 26 µM. For the same compound, the IC50 [9] was 11 µM, the IC90 [9] was 20 µM and the MIC [9] was 16 µM. The IC50 [10] was > 20 µM, the IC50 [11] was > 50 µM and the IC50 at 72 h [12] was > 100 µM. For the same compound, the IC50 [13] was 8.8 µM, the half-life at 1 μM ([14]; NADPH-dependent T1/2, Human) was 1.77 h and the microsomal CLint at 1 μM ([14]; NADPH-free CLint) was < 12.8 µL/min/mg. The half-life at 1 μM ([14]; NADPH-free T1/2, Human) was > 3 h, the IC50 [15] was 6.6 µM and the IC50 ([15]; IC50 CYP3A4 – midazolam, probe substrate midazolam, human liver microsomes) was > 20 µM. The IC50 [16] was > 20 µM, the recovery [17] was 24.5% and the fraction unbound ([17]; plasma) was 0.078. For the same compound, the “activity against M. abscessus (in words)” value [18] was “showed activity”, the IC50 ([18]; Mycobacteroides abscessus) was 56 µM and the IC90 ([18]; Mycobacteroides abscessus) was 68 µM. The MIC ([18]; Mycobacteroides abscessus) was 88 µM and the IC50 [19] was 0.92 µM.

With `c1cc(Cn2cnc3ccccc32)nc(Cn2cnc3ccccc32)c1` [Compound 5, 2,6-bis((1H-benzo[d]imidazol-1-yl)methyl)pyridine] the IC50 ([2]; Low oxygen) was > 50 µM, the IC90 ([2]; Low oxygen) was > 50 µM and the MIC ([2]; Low oxygen) was > 50 µM. The IC50 ([2]; Normal oxygen) was > 50 µM, the IC90 ([2]; Normal oxygen) was > 50 µM and the MIC ([2]; Normal oxygen) was > 50 µM. For the same compound, the IC50 [4] was 43 µM, the IC90 [4] was > 50 µM and the MIC [4] was > 50 µM. The IC50 [8] was > 200 µM, the IC90 [8] was > 200 µM and the IC50 [9] was > 50 µM. For the same compound, the IC90 [9] was > 50 µM, the MIC [9] was > 50 µM and the IC50 [11] was > 50 µM. For the same compound, the solubility [20] was > 200 µM.
